# Values joined by “and” are separate entries in the source; they are usually repeats but may differ in a detail not shown here. Identical values can stand only once. “Also recorded” adds a separate entry of the source. Like-named read-outs stand apart in the source and are kept apart here.
# Assays:
# [1] = test system: factor Xa; experiment: UNIVERSE PK/PD: anti-Factor Xa activity vs plasma rivaroxaban concentration; format: in vivo, pediatric patients
# Method: (§1) PT and aPTT were determined using an electromagnetic mechanical clot detection method at ARUP laboratory (Salt Lake City, Utah, USA). The PT assay was performed according to the manufacturers' instructions on the STA Compact Hemostasis Workstation (STA Compact coagulation analyzer) using one PT reagent (STA-Neoplastine CI Plus, Diagnostica Stago, Inc), with an International Sensitivity Index (ISI) of around 1.3. The primary read-out for PT was in seconds, as the International Normalization Ratio (INR) which allows for comparison of PT values regardless of the reagents and instruments used for its determination, is only calibrated and validated for VKA and cannot be used for any other anticoagulant without validation. The PT reportable range is between 10 and 120 seconds. […] The read-out for aPTT is in seconds with a reportable range between 5 and 180 seconds. Anti-Factor Xa activity was determined at Eurofins Biomnis (France). Anti-Factor Xa activity was measured using a one-step reaction based on the inhibitory effect of rivaroxaban against factor Xa's activity of generating thrombin from prothrombin after adding rivaroxaban into the plasma-substrate mixture using the STA-COMPACT MAX2® system (Diagnostica Stago, Asnieres-sur-Seine, France). […] The calibration range of the assay is 35 to 500 ng/mL, and the lower limit of quantification (LLOQ) is 35 ng rivaroxaban/mL. […]
# [2] = test system: prothrombin time (PT), activated partial thromboplastin time (aPTT); experiment: UNIVERSE PK/PD: PT and aPTT vs plasma rivaroxaban concentration; format: in vivo, pediatric patients; settings: UNIVERSE vs adult studies ODIXa-HIP2 and ODIXa-KNEE
# Method: as §1
# [3] = UNIVERSE primary efficacy outcome: any thrombotic event (CIAC adjudicated); format: in vivo, pediatric patients; settings: full analysis set
# Text: This study was a prospective, open-label, active-controlled, multicenter study designed to evaluate the PK and PK/PD profiles, safety, and efficacy of rivaroxaban for thromboprophylaxis in pediatric patients 2 to 8 years of age with single ventricle physiology who have completed the Fontan procedure within 4 months prior to enrollment. The trial was approved by the institutional review board of each participating institution, as well as the appropriate national ethics committee. Written informed consent for trial participation was obtained from the parent or guardian of each patient. An Independent Data Monitoring Committee (IDMC) ensured patients' safety throughout the trial. A Central Independent Adjudication Committee (CIAC) reviewed all efficacy and safety events.
# Part B was the randomized, open-label, active-controlled part of the study that evaluated the safety and efficacy of twice daily administration of rivaroxaban compared to ASA (usual standard of care) for thromboprophylaxis for 12 months. Patients randomized to rivaroxaban also had PK and PD assessments.
# Primary efficacy outcome: Any thrombotic event, venous or arterial, symptomatic or asymptomatic defined as: • The appearance of a new thrombus within the cardiovascular system on either routine surveillance or clinically indicated imaging, or • The occurrence of a clinical event known to be strongly associated with thrombus (e.g., stroke, pulmonary embolism).
# All efficacy outcomes were adjudicated by the CIAC, blinded to assigned treatment.
# [4] = human, in vivo
# Text: The methods and products of the invention concern dosages that are clinically proven safe and/or effective. Adverse events that impact whether the inventive dose, dosing regimen, treatment or method with rivaroxaban of the present invention are safe are adverse bleeding events that include, for example, major bleeding. “Major bleeding” as used herein is defined in accordance with ISTH criteria as clinically overt bleeding associated with a decrease in hemoglobin of […], a transfusion of the equivalent of […] of packed red blood cells or whole blood, or bleeding at a critical site, or with fatal outcome. Other adverse events include clinically relevant non-major bleeding and trivial (minimal) bleeding.
# The primary safety outcome was ISTH defined major bleeding. Major bleeding was defined as overt bleeding and: […]
# 1) Associated with a fall in hemoglobin of 2 g/dL or more; or 2) Leading to a transfusion of the equivalent of 2 or more units of packed red blood cells or whole blood in adults; or 3) Occurring in a critical site: intracranial, intraspinal, intraocular, pericardial, intraarticular, intramuscular with compartment syndrome, retroperitoneal; or 4) Contributing to death.
# The secondary safety outcomes were: Clinically relevant non-major bleeding and trivial (minimal) bleeding events.
# [5] = 10 mg QD, N=140, cited from earlier work
# [6] = UNIVERSE primary efficacy outcome: any thrombotic event (CIAC adjudicated); format: in vivo, pediatric patients; settings: Part A N=12; up to end of treatment; full analysis set
# [7] = UNIVERSE study: population PK and steady-state exposure of rivaroxaban in post-Fontan pediatric patients
# Method: Rivaroxaban was administered twice daily (BID) in an open-label fashion as a 0.1% (1 mg/mL) oral suspension based on weight as shown in Table 2 (not related to prandial state).
# Blood samples were collected for PK (i.e., plasma rivaroxaban concentrations) and full PD (prothrombin time [PT], activated partial thromboplastin time [aPTT], and anti-factor Xa activity) assessments on the first day of dosing between 0.5 to 1.5 hours and again between 1.5 to 4.0 hours postdose. Additional samples were collected on Day 4, just prior to rivaroxaban administration (PK, PT, aPTT) and again between 0.5 to 1.5 hours (PK, PT, aPTT), 1.5 to 4.0 hours (PK, PT, aPTT), and 6.0 to 8.0 hours (PK and full PD) postdose. At Month 3, samples were collected just prior to rivaroxaban dosing (PK and full PD) and at 0.5 to 1.5 hours postdose (PK, PT, aPTT) and 2.5 to 4 hours postdose (PK, PT, aPTT). An additional random sample (PK, PT, and aPTT) was collected at Month 12.
# In Part B, blood samples were collected for assessment of PT and aPTT before the first dosing; PK and full PD samples were collected between 0.5 to 1.5 hours and again between 1.5 to 4.0 hours after the first dose. At Month 3, PK and full PD samples were collected just prior to rivaroxaban administration and again between 0.5 to 1.5 hours, and 2.5 to 4.0 hours postdose. An additional random sample (PK, PT, and aPTT) was collected at Month 12.
# Blood samples for PK or PD assays were centrifuged, and the resulting plasma samples were frozen and stored below −15° C. until analyzed. Rivaroxaban plasma concentrations were determined using the validated liquid chromatography/mass spectrometry/mass spectrometry (LC-MS/MS) method with a lower limit of quantitation (LLOQ) of 0.5 μg/L. The pharmacodynamic effects of rivaroxaban were assessed by evaluation of prothrombin time (PT), activated partial thromboplastin time (aPTT), and anti-Factor Xa activity (AXA).
# Patients in Part A received their first dose of rivaroxaban oral suspension on Day 1 (on site) and then continued taking rivaroxaban twice daily for 12 days (+9 days) to achieve steady state. PK and PD samples were collected on Day 1 and Day 4 (+2 days) of rivaroxaban administration (Table 3).
# Part A, individual empirical Bayesian post-hoc PK parameters were derived using the existing population PK model from the Einstein Jr program (with the NONMEM option: $ESTIMATION MAXEVAL=0).
# The population PK model used for the rivaroxaban PK profile evaluation was based on the Einstein Jr program. The pharmacokinetics of rivaroxaban were described by a linear two-compartment model with first-order oral absorption and first-order elimination from the central compartment with the absorption rate constant (KA), apparent clearance of the central compartment (CL/F), apparent central volume of distribution (Vc/F), apparent peripheral volume of distribution (Vp/F), and transport rate between the central and peripheral compartments (CI) as structural model parameters. CL/F, Q/F, Vp/F, and Vc/F were fig. allometrically scaled with body weight. Inter-individual variability (IIV) was identified for KA and CL/F. Residual error was described by a proportional error model.
# [8] = Part A N=12, up to end of treatment
# [9] = Part B rivaroxaban N=64, aspirin N=34, up to end of treatment
# [10] = rivaroxaban Part A+B total N=76, up to end of treatment
# [11] = UNIVERSE Part A, weight-based dose regimen BID, N=12
# [12] = UNIVERSE all patients, weight-based dose regimen BID, N=76
# [13] = full UNIVERSE data-set, population PK model
# [14] = full UNIVERSE data-set, subject with body weight of 15 kg
smiles,measurement,setting,value
"O=C(NC[C@H]1CN(c2ccc(N3CCOCC3=O)cc2)C(=O)O1)c1ccc(Cl)s1 [Rivaroxaban, 5-chloro-N-({(5S)-2-oxo-3-[4-(3-oxo-4-morpholinyl)phenyl]-1,3,oxazolidin-5-yl}methyl)-2-thiophenecarboxamide]",Correlation (r) of anti-factor Xa with rivaroxaban plasma concentrations,[1]; UNIVERSE Part A,0.932
same,R-squared of anti-factor Xa activity vs plasma rivaroxaban concentrations,[1]; UNIVERSE study,0.901
same,PT vs rivaroxaban concentration compared with adult reference,[2],within the 99% prediction range observed in the adult reference studies
same,aPTT vs rivaroxaban concentration compared with adult reference,[2],within the 99% prediction range observed in the adult reference studies; also recorded: less steep in comparison to adult reference
same,"Ischemic stroke, subjects n (%)",[3]; [8],0
same,"Other thrombosis, subjects n (%)",[3]; [8],0
same,"All-cause mortality, No. of subjects with event",[3]; [9],0
same,"Any thrombotic event (primary efficacy outcome), % of subjects",[3]; [9],(1.6%)
same,"Arterial/intracardiac thrombosis, subjects n (%)",[3]; [9],0
same,"Ischemic stroke, subjects n (%)",[3]; [9],0
same,"Other thrombosis, subjects n (%)",[3]; [9],0
same,"Pulmonary embolism, % of subjects",[3]; [9],(1.6%)
same,"Venous thromboembolism, % of subjects",[3]; [9],(1.6%)
same,"Venous thromboembolism, No. of subjects with event",[3]; [9],1/64
same,"Venous thrombosis, subjects n (%)",[3]; [9],0
same,"Any thrombotic event (primary efficacy outcome), % of subjects",[3]; rivaroxaban Part A+B total N=76,3%
same,"Arterial/intracardiac thrombosis, subjects n (%)",[3]; [10],0
same,"Ischemic stroke, subjects n (%)",[3]; [10],0
same,"Other thrombosis, subjects n (%)",[3]; [10],0
same,"CRNM bleeding: Hematoma, subjects n (%)",[4],0
same,"CRNM bleeding: Subconjunctival, subjects n (%)",[4],0
same,"Clinically relevant non-major (CRNM) bleeding, % of subjects",[4],(6.3%)
same,"Clinically relevant non-major (CRNM) bleeding, No. of subjects with event",[4],4/64
same,"Clinically relevant non-major bleeding, subjects n (%)",[4],5
same,"Fall in hemoglobin ≥2 g/dL or transfusion of the equivalent ≥2 units of packed red blood cell or whole blood in adults, No. of subjects with event",[4],1/64
same,"Fall in hemoglobin ≥2 g/dL or transfusion of the equivalent ≥2 units, % of subjects",[4],(1.6%)
same,"Fatal or critical site bleeding, No. of subjects with event",[4],0
same,"Major and clinically relevant non-major bleeding, % of subjects",[4],(7.8%)
same,"Major and clinically relevant non-major bleeding, No. of subjects with event",[4],5/64
same,"Major bleeding (ISTH), % of subjects",[4],(1.3%)
same,"Major bleeding (ISTH), subjects n (%)",[4],1
same,"Major bleeding (primary safety outcome), % of subjects",[4],(1.6%)
same,"Major bleeding (primary safety outcome), No. of subjects with event",[4],1/64
same,"Trivial (minimal) bleeding, % of subjects",[4],(32.8%)
same,"Trivial (minimal) bleeding, No. of subjects with event",[4],21/64
same,"Trivial bleeding, subjects n (%)",[4],24
same,"Trivial bleeding: GI-Lower, subjects n (%)",[4],0
same,"AUC24h,ss geometric mean (90% CI)",[5]; Adult reference ODIXa-HIP-OD,1494 ng·h/mL
same,"AUC24h,ss median (range)",[5]; Adult reference,1452 ng·h/mL
same,"Cmax,ss geometric mean (90% CI)",[5]; Adult reference,125.8 ng/mL
same,"Cmax,ss median (range)",[5]; Adult reference,127.6 ng/mL
same,"Ctrough,ss geometric mean (90% CI)",[5]; Adult reference,13.9 ng/mL
same,"Ctrough,ss median (range)",[5]; Adult reference,14.3 ng/mL
same,"Arterial/intracardiac thrombosis, subjects n (%)",[6],0
same,"Primary efficacy outcome (any thrombotic event), subjects n (%)",[6],1 (8.3%) and 1 (8%)
same,"Pulmonary embolism, subjects n (%)",[6],0
same,"Individual values for AUCss,24h, Cmax,ss and Ctrough,ss vs adult reference range",[7]; UNIVERSE Part A,within the adult reference range
same,"AUC24h,ss geometric mean (90% CI)",[7]; [11],1698 ng·h/mL
same,"AUC24h,ss median (range)",[7]; [11],1718 ng·h/mL
same,"Cmax,ss median (range)",[7]; [11],121.8 ng/mL
same,"Ctrough,ss geometric mean (90% CI)",[7]; [11],28.6 ng/mL
same,"Ctrough,ss median (range)",[7]; [11],29 ng/mL
same,"AUC24h,ss geometric mean (90% CI)",[7]; [12],1440 ng·h/mL
same,"Cmax,ss geometric mean (90% CI)",[7]; [12],109.0 ng/mL
same,"Cmax,ss median (range)",[7]; [12],113.3 ng/mL
same,"Ctrough,ss geometric mean (90% CI)",[7]; [12],22.8 ng/mL
same,"Ctrough,ss median (range)",[7]; [12],23.2 ng/mL
same,Body weight exponent for Vc/F,[7]; [13],1.20
same,First-order absorption rate constant,[7]; [13],1.12 h⁻¹
same,CL/F (population PK estimate),[7]; [14],3.30 L/h
same,Q/F (population PK estimate),[7]; [14],1.09 L/h
same,Vc/F (population PK estimate),[7]; [14],17.6 L

# — patent US20220193085A1, “METHODS OF THROMBOPROPHYLAXIS” (JANSSEN PHARMACEUTICALS, INC., priority 2020, published 2022)
